# Test results published in patent publication US11510899B2, “RTX toxin production inhibitor and composition for treating symptom of vibrio infection by using same” (priority 2018, dated 2022).
# Columns and labels:
# [1] = system: Vibrio vulnificus; test: Cytotoxicity of Vibrio vulnificus to INT-407 cells (LDH activity); format: cell-based; conditions: MOI 10, 2.5 hours, various concentrations
# Experimental: Vibrio vulnificus cultured to A600=0.5 at 30° C. was treated with various concentrations of CM2660 or DMSO (control group) and infected into INT-407 cells prepared in 96-well assay plates at multiplicity of infection (MOI) of 10 for 2.5 hours. Then, the 96-well assay plates were centrifuged to separate INT-407 cells, and the supernatant and the lactate dehydrogenase (LDH) activity in the supernatant was measured to determine the occurrence of virulence (FIG. 13).
# [2] = target: T1, HlyU (Vibrio vulnificus, UniProt A0A3Q0L222); test: Electrophoretic mobility shift assay (EMSA), HlyU binding to rtxA promoter DNA
# T1 sequence (A0A3Q0L222 1-98): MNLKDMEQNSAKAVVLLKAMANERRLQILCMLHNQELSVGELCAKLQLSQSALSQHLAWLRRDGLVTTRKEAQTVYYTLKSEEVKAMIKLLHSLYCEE
# Experimental: In order to investigate the effect of CM2660 on the DNA-binding capability of the HlyU protein, electrophoretic mobility shift assay (EMSA) experiments were performed using DNA at the known HlyU-binding rtxA promoter site.
# The promoter site of the rtxA gene was amplified by PCR using ^32P-labeled primer, PrtxA-R (5′-[…]-3′) and unlabeled primer PrtxA-F (5′-[…]-3′). This DNA probe was reacted with 50 nM or 100 nM HlyU, 100 μM CM2660 or DMSO in reaction buffer (10 mM Tris-Cl, 50 mM KCl, 5 mM MgCl2, 0.75 mM DTT and 5% glycerol, 0.1 μg poly(dl-dC)) at 25° C. for 30 minutes.
# The DNA-HlyU complex was electrophoresed on a polyacrylamide gel and phosphoimaged through Typhoon FLA7000 to determine the band position (FIG. 15, FIG. 16).
# [3] = target: T1, HlyU; test: Mass spectrometry / X-ray crystallography of HlyU protein treated with CM2660; format: binding
# Experimental: In order to more accurately identify the HlyU inhibition mechanism of CM2660, the crystal structure of CM2660-treated HlyU protein was detected by X-ray crystallography and compared with that of the HlyU protein not treated with CM2660 (FIG. 17, FIG. 18).
# In order to identify this in more detail, samples of HlyU protein treated with CM2660 were analyzed using mass spectrometry.
# [4] = system: INT-407 cells; test: In-vitro cytotoxicity, LDH release assay; format: cell-based, human; conditions: 1 to 500 μM, 3 hours, 5% Triton-X 100 = 100%
# Experimental: In order to investigate the in-vitro cytotoxicity of CM2660, human epithelial cells, INT-407 cells were treated with Vibrio vulnificus (control) of MOI 10, and 1 to 500 μM of CM2660 or DMSO. After 3 hours, LDH release assay was performed and cytotoxicity was measured (FIG. 21). […] Cytotoxicity (%) was calculated with respect to the cytotoxicity obtained through treatment of 5% Triton-X 100 as 100%.
# [5] = system: Vibrio vulnificus; test: Mouse infection with Vibrio vulnificus, survival; format: in vivo; conditions: 1.4 mg/kg mixed with bacteria, subcutaneous, ICR female mice, vs DMSO
# Experimental: (§1) In order to determine whether or not CM2660 also decreases the virulence of Vibrio vulnificus in vivo using 7-week-old ICR female mice, Vibrio vulnificus cultured at A600=0.5 at 30° C. was prepared. This was mixed with DMSO (10%) or CM2660 (1.4 mg/kg of mouse body weight) and the resulting mixture was subcutaneously injected into the back of mice anesthetized with isoflurane. In addition, only CM2660 was injected subcutaneously in order to determine the in-vivo toxicity of CM2660 (FIG. 22). FIG. 22 is a graph showing the results of observation of the expression of in-vivo toxicity of Vibrio vulnificus after injecting CM2660 into mice.
# [6] = In-vivo toxicity of CM2660 injected alone; conditions: subcutaneous, ICR female mice
# Experimental: as §1
# [7] = system: exsA, vp1668, vopQ, vopS and vopR; test: qRT-PCR of exsA and T3SS-1 genes in Vibrio parahaemolyticus; format: cell-based; conditions: 20 μM, DMEM, vs 2% DMSO
# From the text: In V. parahaemolyticus, HlyU is known to activate the gene expression of the master transcriptional regulator, exsA of type III secretion system-1 (T3SS-1), which causes cytotoxicity. In order to determine whether or not CM2660 reduces the expression of the exsA gene by inhibiting HlyU of V. parahaemolyticus, virulence gene expression of V. parahaemolyticus was investigated using the same method as in (2) of Experimental Example 1.
# In order to induce the T3SS-1 gene expression of Vibrio parahaemolyticus, Vibrio parahaemolyticus was cultured in Dulbecco's Modified Eagle Medium (DMEM) medium.
# Meanwhile, since ExsA activates the expression of the T3SS-1 gene of Vibrio parahaemolyticus, T3SS-1 gene expression was detected using the same sample to determine whether or not the expression of exsA leads to a decrease in T3SS-1 gene expression (FIG. 24).
# [8] = system: Vibrio parahaemolyticus; test: Cytotoxicity of Vibrio parahaemolyticus; format: cell-based; conditions: CM2660 at different concentrations
# [9] = system: Vibrio alginolyticus; test: Cytotoxicity of Vibrio alginolyticus; format: cell-based; conditions: CM2660 at different concentrations
# [10] = system: hlyA and tlh; test: qRT-PCR of hemolytic protein genes in Vibrio cholerae; conditions: 20 μM, A600=0.5, vs 2% DMSO
# [11] = system: Vibrio cholerae; test: Hemolytic activity of Vibrio cholerae supernatant on horse blood agar; conditions: 20 μM, 37° C., 24 hours
# Experimental: Vibrio cholerae supernatant when treated with DMSO was dotted in horse blood agar medium and cultured at 37° C. for 24 hours.
structure (smiles),measurement,setting,value
"O=C(C#Cc1ccccc1)Nc1scc2c1c(=O)oc1ccccc12 [CM2660, N-(4-oxo-4H-thieno[3,4-c]chromen-3-yl)-3-phenylprop-2-ynamide]",virulence (cytotoxicity) occurrence of Vibrio vulnificus,[1],concentration-dependent decrease
same,DNA-binding capability of HlyU,"[2]; 100 μM compound, 50 nM or 100 nM HlyU, 25° C., 30 minutes",significantly decreased
same,"DNA-binding capability of HlyU, concentration dependence",[2]; CM2660 at different concentrations,decrease became greater as the concentration of CM2660 increased
same,covalent binding to cysteine residue at position 30 of HlyU,[3],covalently bound
same,cytotoxicity to INT-407 cells,[4],almost no cytotoxicity
same,viability (survival) of mice infected with Vibrio vulnificus,[5],significantly higher
same,in-vivo toxicity (survival after CM2660 alone),[6],did not show in-vivo toxicity
same,exsA mRNA level,[7],significantly decreased
same,vopQ mRNA level,[7],decreased significantly
same,vopR mRNA level,[7],decreased significantly
same,vopS mRNA level,[7],decreased significantly
same,vp1668 mRNA level,[7],decreased significantly
same,cytotoxicity of Vibrio parahaemolyticus,[8],decrease in the cytotoxicity
same,cytotoxicity of Vibrio alginolyticus,[9],reduced in a concentration-dependent manner
same,hlyA mRNA level,[10],significantly reduced
same,tlh mRNA level,[10],significantly reduced
same,hemolytic activity of Vibrio cholerae (clear zone),[11],reduced
